Reference: US11643405B2, “Compound for treatment or prevention of liver diseases” (JIANGSU ATOM BIOSCIENCE AND PHARMACEUTICAL CO., LTD., priority 2018, dated 2023)

Test system: zebrafish non-alcoholic fatty liver
Assay: Fat reduction or elimination effect on thioacetamide-induced zebrafish non-alcoholic fatty liver (Oil Red O staining)
Format: in vivo
Settings: for The total optical density of liver fat: mean ± SE, n = 10
Experimental: 40 mM stock solution of test compounds 4, 5, 6, 7, 46, 67, 78, 85, 92 and 101 were prepared with DMSO, and stored in a refrigerator at −20° C. The positive control compound S-adenosylmethionine (SAM) was purchased from Aladdin Reagent (Shanghai) Co., Ltd., with the batch number F1523051, which was prepared into a 50 mM stock solution with DMSO. The control compound silymarin was purchased from Shanghai Dibai Biotechnology Co., Ltd., with the batch number EE09, which was prepared into a 40 mM stock solution with DMSO. Thioacetamide was purchased from Sigma-Aldrich, with the batch number BCBV3031, which wasprepared into a 1 M stock solution with DMSO. Oil Red O was purchased from Sigma-Aldrich, with the batch number SLBP5248V. 4% paraformaldehyde was purchased from Dingguo Biotechnology Co., Ltd., with the batch number 773001800. Propylene glycol was purchased from Sinopharm Chemical Reagent Co., Ltd., with the batch number 20170615.
The melanin allele mutant translucent Albino line zebrafish was reproduced in natural paired mating. The fish age was 3 days after fertilization, with 30 fish per experimental group.
The above zebrafish were raised in fish farming water at 28° C. (water quality: 200 mg instant sea salt was added to 1 L of reverse osmosis water, conductivity was 480-510 μS/cm; pH was 6.9-7.2; hardness was 53.7-71.6 mg/L CaCOs), the experimental animal use license number was: SYXK (Zhejiang) 2012-0171. Feeding management met the requirements of international AAALAC certification.
Three days after fertilization, the normal melanin allele mutant translucent Albino strain of zebrafish was randomly selected and placed in a six well plate with 30 fish per well (i.e. each experimental group), and then thioacetamide with the final concentration of 7 mM was used to treat zebrafish for 72 hours to establish the non-alcoholic fatty liver model.
The zebrafish were transferred to a six-well plate, with 30 fish per well (i.e., each experimental group) randomly. Non-alcoholic fatty liver model in zebrafish were induced by thioacetamide. 40 mM test compounds 4, 5, 6, 7, 46, 67, 78, 85, 92 and 101 were quantitatively transferred to a six-well plate, and diluted with water to the corresponding concentration. Test compounds 4, 5, 6 and 7 were formulated into two dose groups with final concentration of 100 μM and 200 μM, respectively; test compound 46 was formulated into a dose group with final concentration of 200 μM; test compounds 67, 78, 85, 92 and 101 were formulated into dose groups with a final concentration of 100 μM; 50 mM positive control SAM was formulated with water to a dose group with final concentration of 50 μM, and a 40 mM positive control silymarin was formulated with water to two concentration dose groups with final concentration of 100 μM and 200 μM. A normal control group (zebrafish treated with fish farming water) and a model control group were set at the same time, and the total volume of each well was 3 mL. Except for the normal control group, the other experimental groups were treated with thioacetamide for 72 hours and stained with Oil Red O. After staining, 10 zebrafish were randomly selected from each experimental group and photographed under a dissecting microscope, NIS-Elements D 3.10 advanced image processing software was used to perform image analysis and collect data, the total optical density (S) of zebrafish liver fat was statistically analyzed, and for the inhibitory effect of each experimental group on liver steatosis of zebrafishwas evaluated by the following formula, the results of statistical analysis were expressed as mean±SE: Inhibition rate of liver steatosis (%)=[S(model control group)−S(test compound group)]/[S(model control group)−S(normal control group)]×100%
Statistical analysis was performed using analysis of variance and Dunnett's T-test, and p<0.05 indicated a significant difference. […]

COc1cc(C2Oc3cc(C4Oc5cc(O)cc(O)c5CC4O)cc(O)c3OC2CO)ccc1O (stereo not drawn) [Compound 7, 2-{8-hydroxy-3-(4-hydroxy-3-methoxyphenyl)-2-hydroxymethyl-2,3-dihydrobenzo[b][1,4]dioxan-6-yl}chroman-3,5,7-triol]
Therapeutic effect on non-alcoholic fatty liver of zebrafish (in words) (100 μM): significant therapeutic effects | The total optical density of liver fat (100 μM): 17835 ± 351 Pixels | Therapeutic effect on zebrafish non-alcoholic fatty liver (in words) (200 μM): significant therapeutic effect | The total optical density of liver fat (200 μM): 18090 ± 437 Pixels | inhibition at 100 µM (Danio rerio, 100 μM, read-out: Inhibition rate of liver steatosis): 98% | inhibition at 200 µM (Danio rerio, 200 μM, read-out: Inhibition rate of liver steatosis): 93%
